#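 Values below derive from 48-hour exposures of cells grown in 96-well plates, with endpoints linearly interpolated between the two concentrations bracketing the appropriate inhibition level. GI50: concentration for 50% inhibition of growth. TGI is the concentration that stops growth completely.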
# How the values were obtained:
# Assay in all cases: NCI tumour cell line growth inhibition, 48 h
# SNB-75 CNS = system: SNB-75 CNS
# COLO 205 colon = system: COLO 205 colon
# SF-268 CNS = system: SF-268 CNS
# SNB-19 CNS = system: SNB-19 CNS
# SR leukemia = system: SR leukemia
# A549 NSCLC = system: A549 NSCLC
# HT29 colon = system: HT29 colon
# EKVX NSCLC = system: EKVX NSCLC
# T-47D breast = system: T-47D breast
# SF-539 CNS = system: SF-539 CNS
# CAKI-1 renal = system: CAKI-1 renal
# MALME-3M melanoma = system: MALME-3M melanoma
# SK-MEL-5 melanoma = system: SK-MEL-5 melanoma
# OVCAR-4 ovarian = system: OVCAR-4 ovarian
# BT-549 breast = system: BT-549 breast
# UO-31 renal = system: UO-31 renal
# MDA-MB-435 = system: MDA-MB-435
# CCRF-CEM leukemia = system: CCRF-CEM leukemia
# NCI-H460 lung = system: NCI-H460 lung
# SK-OV-3 ovarian = system: SK-OV-3 ovarian
# NCI-H23 lung = system: NCI-H23 lung
# LOX IMVI melanoma = system: LOX IMVI melanoma
# HCC-2998 colon = system: HCC-2998 colon
# M14 melanoma = system: M14 melanoma
# U251 CNS = system: U251 CNS
# RPMI-8226 leukemia = system: RPMI-8226 leukemia
# OVCAR-8 ovarian = system: OVCAR-8 ovarian
# MDA-MB-231 breast = system: MDA-MB-231 breast
smiles,measurement,setting,value
O=C1c2ccccc2-c2c1c1ccc3ccccc3c1n2-c1ccccc1,GI50,SNB-75 CNS,81.2 µM
same,TGI,SNB-75 CNS,> 100 µM
same,GI50,COLO 205 colon,30.7 µM
same,TGI,COLO 205 colon,> 100 µM
same,GI50,SF-268 CNS,20 µM
same,TGI,SF-268 CNS,52.3 µM
same,GI50,SNB-19 CNS,25.7 µM
same,TGI,SNB-19 CNS,59.1 µM
same,GI50,SR leukemia,41.9 µM
same,TGI,SR leukemia,> 100 µM
same,GI50,A549 NSCLC,36.5 µM
same,TGI,A549 NSCLC,93.5 µM
same,GI50,HT29 colon,> 100 µM
same,TGI,HT29 colon,> 100 µM
same,GI50,EKVX NSCLC,40 µM
same,TGI,EKVX NSCLC,> 100 µM
same,GI50,T-47D breast,12.7 µM
same,TGI,T-47D breast,41.5 µM
same,GI50,SF-539 CNS,18.2 µM
same,TGI,SF-539 CNS,36.3 µM
same,GI50,CAKI-1 renal,22 µM
same,TGI,CAKI-1 renal,40.9 µM
same,GI50,MALME-3M melanoma,28.1 µM
same,TGI,MALME-3M melanoma,66.2 µM
same,GI50,SK-MEL-5 melanoma,16.5 µM
same,TGI,SK-MEL-5 melanoma,50.1 µM
same,GI50,OVCAR-4 ovarian,> 100 µM
same,TGI,OVCAR-4 ovarian,> 100 µM
same,GI50,BT-549 breast,44.7 µM
same,TGI,BT-549 breast,> 100 µM
same,GI50,UO-31 renal,44.7 µM
same,TGI,UO-31 renal,> 100 µM
same,GI50,MDA-MB-435,97.9 µM
same,TGI,MDA-MB-435,> 100 µM
same,GI50,CCRF-CEM leukemia,> 100 µM
same,TGI,CCRF-CEM leukemia,> 100 µM
same,GI50,NCI-H460 lung,31.7 µM
same,TGI,NCI-H460 lung,> 100 µM
same,GI50,SK-OV-3 ovarian,26.2 µM
same,TGI,SK-OV-3 ovarian,54.1 µM
same,GI50,NCI-H23 lung,56.8 µM
same,TGI,NCI-H23 lung,> 100 µM
same,GI50,LOX IMVI melanoma,39 µM
same,TGI,LOX IMVI melanoma,> 100 µM
same,GI50,HCC-2998 colon,30.5 µM
same,TGI,HCC-2998 colon,94.4 µM
same,GI50,M14 melanoma,94.1 µM
same,TGI,M14 melanoma,> 100 µM
same,GI50,U251 CNS,18.9 µM
same,TGI,U251 CNS,35.7 µM
same,GI50,RPMI-8226 leukemia,65.1 µM
same,TGI,RPMI-8226 leukemia,> 100 µM
same,GI50,OVCAR-8 ovarian,23 µM
same,TGI,OVCAR-8 ovarian,54.7 µM
same,GI50,MDA-MB-231 breast,22.3 µM
